Legend:
Type in all cases: cell-based, mouse
AMPK phosphorylation = test: Western blot of AMPK phosphorylation in mature 3T3-L1 adipocytes; details: 5 or 10 µM for 1 h
Experimental: (§1) To further elucidate the pathway involved in 1e-mediated glucose uptake promotion, AMPK and Akt phosphorylation in mature 3T3-L1 adipocytes was evaluated via Western blotting following treatment with 5 or 10 µM 1e for 1 h.
(§2) The expression levels of glucose uptake-related proteins were determined via Western blotting, as previously described. In brief, differentiated 3T3-L1 cells were plated in six-well plates at a 1.5 × 10^4 cells/well density in a final volume of 2 mL. Then, the cells were incubated in the presence of DMSO or different concentrations of the compounds and harvested using a RIPA buffer (Sigma-Aldrich, Saint Louis, MS, USA) and a protease inhibitor cocktail (Roche Korea, Seoul, Korea) after 1 h of incubation. Equivalent amounts of proteins (20 µg) from each lysate were separated by 10% SDS-PAGE and transferred onto PVDF membranes (Merk KgaA, Darmstadt, Germany), where they were maintained for 120 min at 200 mA. The membranes were blocked with 5% skim milk for 1 h at room temperature in 0.1% TBST and then probed with primary antibodies at different concentrations in 0.1% BSA overnight at 4 °C according to the manufacturer’s instructions. Secondary antibodies were added to the membranes at a concentration of 1:2000 for 1 h at room temperature, and immunoreactive bands were detected via ECL (GE Healthcare Korea Co., Ltd., Incheon, Korea). […]

Akt phosphorylation = test: Western blot of Akt phosphorylation in mature 3T3-L1 adipocytes; details: compound only group and insulin co-treatment group
Experimental: as §1, §2

[1] = system: Akt phosphorylation in PA-induced insulin-resistant C2C12 cells; test: Palmitic acid-induced insulin resistance in C2C12 myotubes (p-Akt); details: PA (250 µM, 16 h)-treated C2C12, 5 μM compound for 30 min with 100 nM insulin
Experimental: Since insulin plays an important role in regulating glucose metabolism through the redistribution of GLUT4 from intracellular vesicles to the cell surface, it is important to describe the interaction between 1e and insulin in the Akt pathway. […] Next, we evaluated the protective effects of 1e against PA-induced insulin resistance in C2C12 myotubes. To generate an insulin resistance model, C2C12 myotubes were treated with 250 µM PA in a serum-free medium for 16 h. Akt phosphorylation levels in PA-treated C2C12 cells decreased by 50% compared to levels in normal C2C12 cells (Figure 6C). Furthermore, in the presence of insulin and GA, Akt phosphorylation levels decreased only by 30% compared to levels in normal cells. […] In addition, the GA analogs induced no cytotoxic effects in C2C12 muscle cells (data not shown). […] The expression levels of glucose uptake-related proteins were determined via Western blotting, as previously described. In brief, differentiated 3T3-L1 cells were plated in six-well plates at a 1.5 × 10^4 cells/well density in a final volume of 2 mL. […] Secondary antibodies were added to the membranes at a concentration of 1:2000 for 1 h at room temperature, and immunoreactive bands were detected via ECL (GE Healthcare Korea Co., Ltd., Incheon, Korea). […]

CCCCCCCCCCCCCOc1cccc(O)c1C(=O)O [Compound 1e]
AMPK phosphorylation (AMPK phosphorylation): significantly induced AMPK phosphorylation in a concentration-dependent manner
Akt phosphorylation levels (Akt phosphorylation): no significant change
Akt phosphorylation in PA-induced insulin-resistant C2C12 cells [1]: restoring it to levels similar to those in the non-insulin-resistant group

From article PMC8999917, “Structure–Activity Relationship of Synthetic Ginkgolic Acid Analogs for Treating Type 2 Diabetes by PTPN9 Inhibition” (International Journal of Molecular Sciences, 2022)
